One data set relates to Skeletonema costatum. Kind of data set: Acute aquatic toxicity, ISO 10253. The settings on record: Hec50, 72 h, Method: ISO 10253. Type of data set: in vivo. As to the method: (§1) (i) acute toxicity to the most sensitive marine species (skeletonema costatum) must be greater than EC50 of 10 mg/L; (ii) bioaccumulation potential (as indicated by Log Pow, the octanol-water partition coefficient) must be below 3 or the molecular weight must be greater than 700; and (iii) biodegradation in 28 days is greater than 60%. Corrosion inhibitor intermediates such as the quaternary ammonium salt were tested for their level of acute aquatic toxicity (Table 9), Log Pow (Table 10), and their ability to biodegrade in 28 days (Table 10).

A short description of data set [1]: Log Pow (octanol-water partition coefficient), OECD 117. It counts as physicochemical. Conditions: n-octanol/water; Method: OECD 117.
Text: The bioaccumulation potential of chemical substances has generally been determined from the n-octanol/water partition coefficient (expressed as log Pow) and the bioconcentration factor. The log Pow represents the ratio of a material that dissolves or disperses in octanol (the oil phase) versus water. This coefficient is used as a chemical surrogate for bioaccumulative potential. A log Pow of less than ten is preferred, a log Pow of less than six is more preferred, and a log Pow of less than three is most preferred.
as §1

The test system of another data set is Corophium volutator. The data set is described as follows: Acute aquatic toxicity, PARCOM. Conditions: Method: PARCOM. It counts as in vivo. The procedure: as §1
The nature of data set [2]: Acute aquatic toxicity, ISO 146669. The settings on record: Acartia tonsa, in vivo, Method: ISO 146669. As to the method: as §1
The nature of data set [3]: Biodegradation in 28 days, Marine BODIS. The settings on record: Method: Marine BODIS.
Text: Biodegradation is the chemical breakdown of a material by microorganisms into nutrients that can be used by other organisms. Generally, a complex molecule can be broken down into carbon dioxide, water, microbial biomass, and/or inorganic salts. A biodegradation of 10% or greater is preferred, biodegradation of 20% or greater is more preferred, and a biodegradation of 60% or greater is most preferred.
as §1

Each structure is given as a SMILES string.

As usually defined, the EC50 is the concentration at which the effect is half-maximal. The chromatographic logP is lipophilicity estimated from chromatographic retention. Read a low chromatographic logP as a more hydrophilic compound. Molecule `CCOC(=O)c1cc[n+](Cc2cccc3ccccc23)cc1.[Cl-]` [Compound 1] gave an EC50 in the data set on Skeletonema costatum of over 10 µg/mL. The molecule further yielded a chromatographic logP in data set [1] of 2.7.

As usually defined, the LC50 is the concentration lethal to half of the exposed cells or organisms. A low value points to a more lethal substance. Regarding `NC(=O)c1ccc[n+](Cc2cccc3ccccc23)c1.[Cl-]` [Compound 4], the “Corophium volutator 10 d LC50” value with Corophium volutator was 6116.15 mg/kg. The molecule also yielded an LC50 at 48 h in data set [2] of 105 µg/mL. For the same molecule, the “Biodegradation (28 days)” value in data set [3] was 40%^7. The same molecule came in with a chromatographic logP in data set [1] of 2.1.
